Test results as given in US4435583A, “2-Halo-substituted monic acid A useful as antibacterial compounds” (Beecham Group p.l.c., priority 1981, dated 1984).
≈ marks a conversion by molar mass, not a printed value.

Columns and labels:
Format in all cases: cell-based
[1] = tested on: M. bovis NCTC 10131; test: microbe, parasite or virus in culture; details: Mycobacterium tuberculosis variant bovis, NCTC10131, 144 h
[2] = tested on: Strep. pyrogenes R80/421-A; test: MIC against human bacteria; details: nutrient agar, 5% chocolated horse blood, 18 hours, 37° C.
Procedure: (§1) The values were determined by serial dilutions in nutrient agar with 5% chocolated horse blood after incubations for 18 hours at 37° C.

[3] = tested on: E. coli ESS; test: MIC against human bacteria; details: nutrient agar, 5% chocolated horse blood, 18 hours, 37° C.
Procedure: as §1

[4] = tested on: K. aerogenes A; test: MIC against human bacteria; details: Klebsiella aerogenes, nutrient agar, 5% chocolated horse blood, 18 hours, 37° C., read-out: MIC
Procedure: as §1

[5] = tested on: Haemophilus influenzae Wy21; test: MIC against human bacteria; details: Haemophilus influenzae, WY21, 18 h, nutrient agar, 5% chocolated horse blood, 37° C.
Procedure: as §1

[6] = tested on: E. coli NCTC 10418; test: MIC against human bacteria; details: Escherichia coli, NCTC10418, nutrient agar, 5% chocolated horse blood, 18 hours, 37° C., read-out: MIC
Procedure: as §1

[7] = tested on: Sarcina lutea 8340; test: MIC against human bacteria; details: Micrococcus luteus, nutrient agar, 5% chocolated horse blood, 18 hours, 37° C., read-out: MIC
Procedure: as §1

[8] = tested on: Haemophilus influenzae Q1; test: MIC against human bacteria; details: Haemophilus influenzae, Q1, 18 h, nutrient agar, 5% chocolated horse blood, 37° C.
Procedure: as §1

[9] = tested on: Staph. aureus Russell; test: MIC against human bacteria; details: nutrient agar, 5% chocolated horse blood, 18 hours, 37° C.
Procedure: as §1

[10] = tested on: Corynebacterium xerosis 9755; test: MIC against human bacteria; details: nutrient agar, 5% chocolated horse blood, 18 hours, 37° C., read-out: MIC
Procedure: as §1

[11] = tested on: Strep. faecalis I; test: MIC against human bacteria; details: Enterococcus faecalis, nutrient agar, 5% chocolated horse blood, 18 hours, 37° C., read-out: MIC
Procedure: as §1

[12] = tested on: Staph. aureus Oxford; test: MIC against human bacteria; details: nutrient agar, 5% chocolated horse blood, 18 hours, 37° C.
Procedure: as §1

[13] = tested on: Staph. aureus W2827; test: MIC against human bacteria; details: nutrient agar, 5% chocolated horse blood, 18 hours, 37° C.
Procedure: as §1

[14] = tested on: Ps. aeruginosa NCTC 10662; test: MIC against human bacteria; details: Pseudomonas aeruginosa, NCTC10662, nutrient agar, 5% chocolated horse blood, 18 hours, 37° C., read-out: MIC
Procedure: as §1

[15] = tested on: Strep. 2788-B; test: MIC against human bacteria; details: nutrient agar, 5% chocolated horse blood, 18 hours, 37° C.
Procedure: as §1

[16] = tested on: Strep. pneumoniae CN33; test: MIC against human bacteria; details: nutrient agar, 5% chocolated horse blood, 18 hours, 37° C.
Procedure: as §1

[17] = tested on: M. bovigenitalium ATCC 14173; test: In vitro anti-mycoplasmal MIC; details: 144 h, Friis broth, 0.9% agarose, 6 days, 37° C.
[18] = tested on: M. hyorhinis ATCC 25021; test: In vitro anti-mycoplasmal MIC; details: Mesomycoplasma hyorhinis, ATCC25021, 144 h, Friis broth, 0.9% agarose, 6 days, 37° C.

## CCOC(=O)C(F)=C(C)CC1OCC(CC2OC2C(C)C(C)O)C(O)C1O [Example 1, Ethyl-4-[5S-(2S,3S-epoxy-5S-hydroxy-4S-methylhexyl)-3R, 4R-dihydroxytetrahydropyran-2S-yl]-2-fluoro-3-methylbut-2(Z)-enoate]
[1]
  MIC: 0.025 µg/mL (≈ 0.064 µM)
[2]
  MIC: 1.0 µg/mL (≈ 2.56 µM)
[3]
  MIC: 5.0 µg/mL (≈ 12.8 µM)
[4]
  MIC: > 100 µg/mL
[5]
  MIC: 0.25 µg/mL (≈ 0.64 µM)
[6]
  MIC: > 100 µg/mL
[7]
  MIC: > 100 µg/mL
[8]
  MIC: 0.1 µg/mL (≈ 0.256 µM)
[9]
  MIC: 1.0 µg/mL (≈ 2.56 µM)
[10]
  MIC: > 100 µg/mL
[11]
  MIC: > 100 µg/mL
[12]
  MIC: 1.0 µg/mL (≈ 2.56 µM)
[13]
  MIC: 1.0 µg/mL (≈ 2.56 µM)
[14]
  MIC: > 100 µg/mL
[15]
  MIC: 10.0 µg/mL (≈ 25.6 µM)
[16]
  MIC: 2.5 µg/mL (≈ 6.4 µM)
[17]
  MIC: 0.025 µg/mL (≈ 0.064 µM)
[18]
  MIC: 0.25 µg/mL (≈ 0.64 µM)
